For the test, the system named is BDF1 mice, B16 melanoma ip, median survival T/C. Description: NCI In Vivo Anticancer Drug Screen. Data for tumor model B16 Melanoma (intraperitoneal) in B6D2F1 (BDF1) mice. The settings on record: endpoint: median survival time, higher = longer survival. In short, it runs like this: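 Survival or tumor size is measured after treatment of tumor-bearing mice and normalised to the vehicle-treated control group.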

Setting [1] is: dose: 12.5 mg/kg/injection, schedule: Q01DX009 (ip), vehicle: saline with Tween-80.
Where [2] appears, read: dose: 12.5 mg/kg/injection, schedule: Q01DX009 (ip), vehicle: saline.
Where [3] appears, read: dose: 25.0 mg/kg/injection, schedule: Q01DX009 (ip), vehicle: saline with Tween-80.
Where [4] appears, read: dose: 25.0 mg/kg/injection, schedule: Q01DX009 (ip), vehicle: saline.
Where [5] appears, read: dose: 50.0 mg/kg/injection, schedule: Q01DX009 (ip), vehicle: saline with Tween-80.
Setting [6] is: dose: 50.0 mg/kg/injection, schedule: Q01DX009 (ip), vehicle: saline.
Where [7] appears, read: dose: 5.0 mg/kg/injection, schedule: Q01DX009 (ip), vehicle: Klucel (hydroxypropylcellulose) (HPC).
The mark [8] stands for this setting: dose: 10.0 mg/kg/injection, schedule: Q01DX009 (ip), vehicle: Klucel (hydroxypropylcellulose) (HPC).
Setting [9] is: dose: 12.5 mg/kg/injection, schedule: Q01DX009 (ip), vehicle: Klucel (hydroxypropylcellulose) (HPC).
The mark [10] stands for this setting: dose: 25.0 mg/kg/injection, schedule: Q01DX009 (ip), vehicle: Klucel (hydroxypropylcellulose) (HPC).
The mark [11] stands for this setting: dose: 50.0 mg/kg/injection, schedule: Q01DX009 (ip), vehicle: Klucel (hydroxypropylcellulose) (HPC).
[12] abbreviates: dose: 100.0 mg/kg/injection, schedule: Q04DX003 (ip), vehicle: saline.
Setting [13] is: dose: 100.0 mg/kg/injection, schedule: Q01DX009 (ip), vehicle: saline with Tween-80.
[14] abbreviates: dose: 100.0 mg/kg/injection, schedule: Q01DX009 (ip), vehicle: Klucel (hydroxypropylcellulose) (HPC).
Where [15] appears, read: dose: 200.0 mg/kg/injection, schedule: Q01DX009 (ip), vehicle: Klucel (hydroxypropylcellulose) (HPC).
Setting [16] is: dose: 400.0 mg/kg/injection, schedule: Q01DX009 (ip), vehicle: Klucel (hydroxypropylcellulose) (HPC).
Setting [17] is: dose: 9.4 mg/kg/injection, schedule: Q01DX009 (ip), vehicle: saline with Tween-80.

Values joined by “and” are separate entries in the source; they are usually repeats but may differ in a detail not shown here. Equal values may be shown once. Toxic doses and inconclusive results are not listed.

For the compound `NC(=S)N/N=C\c1nccc2c(N)cccc12`, the T/C was 115 % of control and 120 % of control (dose: 6.25 mg/kg/injection, schedule: Q01DX009 (ip), vehicle: saline with Tween-80); 160 % of control (dose: 6.25 mg/kg/injection, schedule: Q01DX009 (ip), vehicle: saline); 119 % of control under setting [1]; 172 % of control under setting [2]; 155 % of control (dose: 18.8 mg/kg/injection, schedule: Q04DX003 (ip), vehicle: saline); 156 % of control under setting [3]. Moreover, the T/C is, setting by setting: under setting [4], 179 % of control; (dose: 37.5 mg/kg/injection, schedule: Q04DX003 (ip), vehicle: saline) 168 % of control; under setting [5], 164 % of control and 175 % of control; under setting [6], 197 % of control; (dose: 75.0 mg/kg/injection, schedule: Q01DX009 (ip), vehicle: saline with Tween-80) 150 % of control and 153 % of control and 165 % of control; (dose: 75.0 mg/kg/injection, schedule: Q04DX003 (ip), vehicle: saline) 168 % of control. Moreover, the T/C (dose: 150.0 mg/kg/injection, schedule: Q04DX003 (ip), vehicle: saline) is 179 % of control.

Regarding `Cn1ncc2c(N)ncnc21`, the T/C reads like this: (dose: 1.25 mg/kg/injection, schedule: Q01DX009 (ip), vehicle: Klucel (hydroxypropylcellulose) (HPC)) 102 % of control; (dose: 2.5 mg/kg/injection, schedule: Q01DX009 (ip), vehicle: Klucel (hydroxypropylcellulose) (HPC)) 111 % of control; under setting [7], 105 % of control; under setting [8], 119 % of control.

Take `CCC(C)C1NC(=O)C(NC(=O)c2c3[nH]c4c(C(=O)NC5C(=O)NC(C(C)CC)C(=O)N6CCCC6C(=O)N(C)CC(=O)N(C)C(C(C)C)C(=O)OC5C)ccc(C)c4oc-3c(C)c(=O)c2=O)C(C)OC(=O)C(C(C)C)N(C)C(=O)CN(C)C(=O)C2CCCN2C1=O` (stereo unspecified): the T/C (dose: 0.05 mg/kg/injection, schedule: Q01DX009 (ip), vehicle: water) is 98 % of control; the T/C (dose: 0.1 mg/kg/injection, schedule: Q01DX009 (ip), vehicle: water) is 102 % of control; the T/C (dose: 0.2 mg/kg/injection, schedule: Q01DX009 (ip), vehicle: water) is 97 % of control; the T/C (dose: 0.4 mg/kg/injection, schedule: Q01DX009 (ip), vehicle: water) was 103 % of control; the T/C (dose: 0.8 mg/kg/injection, schedule: Q01DX009 (ip), vehicle: water) is 100 % of control; the T/C (dose: 1.6 mg/kg/injection, schedule: Q01DX009 (ip), vehicle: water) is 101 % of control.

In the case of `CCCCC(=O)OCC1OC(n2cnc3c(=S)nc[nH]c32)C(OC(=O)CCCC)C1OC(=O)CCCC` (stereo unspecified), under setting [3], the T/C was 119 % of control.

Turning to `ClCCCCCCCCCCCl`, the T/C under setting [9] is 111 % of control; the T/C under setting [10] is 100 % of control; the T/C (dose: 25.0 mg/kg/injection, schedule: Q04DX003 (ip), vehicle: Klucel (hydroxypropylcellulose) (HPC)) was 100 % of control; the T/C under setting [11] was 95 % of control; the T/C (dose: 50.0 mg/kg/injection, schedule: Q04DX003 (ip), vehicle: Klucel (hydroxypropylcellulose) (HPC)) is 100 % of control; the T/C (dose: 100.0 mg/kg/injection, schedule: Q04DX003 (ip), vehicle: Klucel (hydroxypropylcellulose) (HPC)) was 104 % of control.

For `Cc1ccc(NC(=O)Nc2ccccc2)cc1Cl`, the T/C is, setting by setting: (dose: 100.0 mg/kg/injection, schedule: Q01DX008 (sc), vehicle: olive oil, sesame oil, peanut oil) 99 % of control; (dose: 200.0 mg/kg/injection, schedule: Q01DX008 (sc), vehicle: olive oil, sesame oil, peanut oil) 96 % of control; (dose: 400.0 mg/kg/injection, schedule: Q01DX008 (sc), vehicle: olive oil, sesame oil, peanut oil) 98 % of control.

As to `COC(=O)C(CCCN=C(N)N)NC(=O)OCc1ccccc1` (stereo unspecified), the T/C by setting is: under setting [12], 100 % of control; (dose: 200.0 mg/kg/injection, schedule: Q04DX003 (ip), vehicle: saline) 95 % of control.

With `COc1ccc2cc1Oc1ccc(cc1)C[C@H]1c3cc(c(OC)cc3CCN1C)Oc1c(OC)c(OC)cc3c1[C@H](C2)N(C)CC3`, the T/C (dose: 12.5 mg/kg/injection, schedule: Q01DX009 (ip), vehicle: other) is 109 % of control; the T/C under setting [1] was 106 % of control and 108 % of control; the T/C under setting [2] was 97 % of control; the T/C (dose: 12.5 mg/kg/injection, schedule: Q04DX003 (ip), vehicle: saline) is 94 % of control; the T/C (dose: 25.0 mg/kg/injection, schedule: Q01DX009 (ip), vehicle: other) was 106 % of control; the T/C under setting [3] is 106 % of control and 115 % of control. The T/C under setting [4] is 100 % of control; the T/C (dose: 25.0 mg/kg/injection, schedule: Q04DX003 (ip), vehicle: saline) is 108 % of control; the T/C (dose: 50.0 mg/kg/injection, schedule: Q01DX009 (ip), vehicle: other) was 102 % of control; the T/C under setting [5] is 94 % of control and 113 % of control; the T/C under setting [6] was 105 % of control; the T/C (dose: 50.0 mg/kg/injection, schedule: Q04DX003 (ip), vehicle: saline) was 97 % of control. In addition, the T/C was 89 % of control and 101 % of control and 109 % of control under setting [13]; 100 % of control under setting [12].

On to `CCOc1ccccc1NC(=O)c1ccccc1Cl`, for which the T/C under setting [14] was 106 % of control, the T/C under setting [15] was 106 % of control and the T/C under setting [16] is 93 % of control.

Regarding `O=P(CCCCCCP(=O)(N1CC1)N1CC1)(N1CC1)N1CC1`, the T/C under setting [14] was 176 % of control.

As to `CC(=O)[S][Pb]([c]1ccccc1)([c]1ccccc1)[c]1ccccc1`, the T/C is 97 % of control (dose: 0.5 mg/kg/injection, schedule: Q01DX009 (ip), vehicle: saline with Tween-80); 93 % of control (dose: 1.0 mg/kg/injection, schedule: Q01DX009 (ip), vehicle: saline with Tween-80); 92 % of control (dose: 2.0 mg/kg/injection, schedule: Q01DX009 (ip), vehicle: saline with Tween-80); 101 % of control (dose: 4.0 mg/kg/injection, schedule: Q01DX009 (ip), vehicle: saline with Tween-80).

`CC(C)c1ccc(C(=O)CCCCl)cc1`: the T/C under setting [13] is 93 % of control and the T/C (dose: 200.0 mg/kg/injection, schedule: Q01DX009 (ip), vehicle: saline with Tween-80) was 86 % of control.

With `O/N=C1\CCCC\C1=N/O.O/N=C1\CCCC\C1=N/O.[Pd]`, the T/C reads like this: (dose: 25.0 mg/kg/injection, schedule: Q04DX003 (ip), vehicle: other) 101 % of control; (dose: 50.0 mg/kg/injection, schedule: Q04DX003 (ip), vehicle: other) 91 % of control; (dose: 100.0 mg/kg/injection, schedule: Q04DX003 (ip), vehicle: other) 93 % of control.

With `O=C(COc1ccc(Cl)cc1)Nc1cccc(C(F)(F)F)c1`, the T/C runs as follows: under setting [7], 117 % of control; under setting [17], 93 % of control; under setting [8], 101 % of control; (dose: 37.5 mg/kg/injection, schedule: Q01DX009 (ip), vehicle: saline with Tween-80) 90 % of control and 91 % of control.

As to `CC[CH2][Pb]([CH2]CC)([CH2]CC)[O]C(=O)C(Cl)(Cl)Cl`, the T/C was 120 % of control (dose: 2.0 mg/kg/injection, schedule: Q01DX009 (ip), vehicle: Klucel (hydroxypropylcellulose) (HPC)) and 112 % of control (dose: 4.0 mg/kg/injection, schedule: Q01DX009 (ip), vehicle: Klucel (hydroxypropylcellulose) (HPC)).

On to `COC(=O)C1(C(=O)OC)C=CCCC1=O`, for which the T/C by setting is: under setting [14], 99 % of control; under setting [15], 97 % of control.

As for `CC(=O)CC(=O)Nc1cccc(O)c1`, the T/C was 92 % of control under setting [14], 92 % of control under setting [15] and 86 % of control under setting [16].

Consider `CCCCCCCCCCCCCC(=O)CC`, for which the T/C under setting [17] is 95 % of control and the T/C (dose: 18.75 mg/kg/injection, schedule: Q01DX009 (ip), vehicle: saline with Tween-80) is 87 % of control.

Take `CC(C)(C)C1CCCCC1`: the T/C under setting [9] was 96 % of control, the T/C under setting [10] was 105 % of control, the T/C under setting [11] was 95 % of control and the T/C under setting [14] is 88 % of control.

As to `C/C=C/CNc1ccccc1`, the T/C under setting [5] was 101 % of control and the T/C under setting [13] was 94 % of control.

Values taken from PubChem BioAssay AID192 (DTP/NCI, 2004).
